Reference: patent US10350271B2, “Lipidated peptides for lowering blood glucose” (USTAV ORGANICKE CHEMIE A BIOCHEMIE AKADEMIE VED CR, V.V.I., priority 2014, dated 2019)

Legend:
rat PrRP receptor = target: T1, rat PrRP receptor (Rattus norvegicus, UniProt Q64121); experiment: Competitive binding in RC-4B/C rat pituitary cells (125I-rat PrRP31)
T1 construct: host or cells: RC-4B/C rat pituitary cell line
T1 sequence (Q64121 1-370): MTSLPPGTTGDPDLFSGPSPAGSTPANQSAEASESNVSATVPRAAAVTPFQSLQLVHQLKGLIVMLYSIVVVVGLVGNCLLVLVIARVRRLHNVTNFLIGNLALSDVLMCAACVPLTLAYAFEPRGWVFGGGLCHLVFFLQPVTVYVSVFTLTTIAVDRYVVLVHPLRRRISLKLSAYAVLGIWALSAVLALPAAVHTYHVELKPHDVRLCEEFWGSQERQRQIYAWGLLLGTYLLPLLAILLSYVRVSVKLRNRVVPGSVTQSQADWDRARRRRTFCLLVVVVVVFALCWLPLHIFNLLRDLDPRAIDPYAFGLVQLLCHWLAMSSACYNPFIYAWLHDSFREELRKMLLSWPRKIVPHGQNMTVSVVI
Outline: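 Intact rat pituitary RC-4B/C cells incubated 60 min at room temperature with […] rat 125I-PrRP31 and unlabeled analog (10^−11 to 10^−4 mol·l^−1) in HEPES pH 7.4 buffer. Cell-bound radioactivity γ-counted after NaOH lysis; one-site competition fit.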

[1] = target: T2, human PrRP receptor GPR10 (Homo sapiens, UniProt P49683); experiment: Competitive binding in CHO cells transfected with human GPR10 (human 125I-PrRP31)
T2 construct: host or cells: CHO cells
T2 sequence (P49683 1-370): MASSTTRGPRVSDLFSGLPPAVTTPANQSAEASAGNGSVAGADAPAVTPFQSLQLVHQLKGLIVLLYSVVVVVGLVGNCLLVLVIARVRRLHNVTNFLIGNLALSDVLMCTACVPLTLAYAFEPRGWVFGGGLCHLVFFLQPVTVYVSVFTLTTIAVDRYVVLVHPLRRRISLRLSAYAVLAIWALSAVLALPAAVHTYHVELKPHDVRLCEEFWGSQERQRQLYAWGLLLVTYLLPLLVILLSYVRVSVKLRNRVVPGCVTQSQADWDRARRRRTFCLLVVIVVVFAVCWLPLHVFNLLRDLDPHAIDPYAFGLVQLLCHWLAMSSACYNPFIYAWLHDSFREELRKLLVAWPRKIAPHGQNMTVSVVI
Outline: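 GPR10-transfected CHO cells (40-80 thousand/well) incubated 60 min at room temperature with 5×10^-11 mol·l^-1 human 125I-PrRP31 and unlabeled analog at 10^-11 to 10^-4 mol·l^-1 in Tris binding buffer pH 7.4. Cells solubilized in 0.1 mol/l NaOH, γ-counted; one-site nonlinear regression fit.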

Wistar rats = experiment: Food intake in fasted rats after SC injection; type: in vivo; conditions: overnight fasted rats, compared to controls given vehicle
Method: NMRI mice, C57BL/6 mice, and Wistar rats (AnLab, Prague, Czech Republic) were housed in a temperature of 23° C. and a daily cycle of 12 h light and dark (light from 6:00). They were given ad libitum water and a standard chow diet that contained 25, 9 and 66% of calories of protein, fat and carbohydrate respectively. Energy content of the feed was 3.4 kcal/g (St-1, Mlýn Kocanda, Czech Republic). Db/db mice and their controls (C57BL/6 background) were obtained from Taconic (Denmark), housed under the same conditions as described above, and fed by Altromin (Taconic, Denmark). ZDF-Lepr^fa/Crl, diabetic fa/fa male rats were obtained from Charles River (France), housed under same conditions as described above, and fed with a Purina 5008 diet (IPS Product Supplies Limited, UK). All experiments followed the ethical guidelines for animal experiments and the law of the Czech Republic Nr. 246/1992.
In experiments with C57BL/6 mice or Wistar rats, food intake was measured with overnight fasted animals in individual cages. Food was withdrawn 17 hours prior to injection of lipidated analog of prolactin releasing peptide (PrRP); free access to water was maintained. The administration of either saline, PrRP, or lipidated analogs was performed by SC injection at doses of 1-10 mg/kg (which corresponded to a volume of 0.2 ml/mouse and 0.1 ml/100 g weight of rat). Fifteen minutes after the lipidated analog of prolactin releasing peptide (PrRP) administration, the mice were given pre-weighed food. The food was then weighed every 30 minutes for 5-10 hours. The administration of each dose was performed at least twice, and each group of mice consisted of at least 6 mice.

diabetic db/db mice = experiment: IPGTT after 14 days administration to diabetic db/db mice; type: in vivo; conditions: 5 mg/kg SC twice a day for 14 days, vs saline
Method: Then, mice were fasted overnight and IPGTT was performed. After initial blood glucose measurement, 2 g/kg glucose solution was administered IP and glucose followed every hour for 7 hours. Glucose level is shown at the end of the experiment (420 min).
Db/db male mice and their respective controls were acclimatized after arrival, housed 2-3 mice per cage, and used in the experiment at age 11-12 weeks. Mice had free access to food and water, and were subjected to a 14-day experiment. […] The body weight of the mice was followed simultaneously. Following 14 days of treatment, mice were fasted overnight and IPGTT was performed. After initial blood glucose measurement, 2 g/kg glucose solution was administered IP, and glucose levels were measured every hour for 7 hours.

CCCCCCCCCCCCCCCC(=O)N[C@@H](CO)C(=O)N[C@@H](CCCNC(=N)N)C(=O)N[C@H](C(=O)N[C@@H](Cc1c[nH]cn1)C(=O)N[C@@H](CCCNC(=N)N)C(=O)N[C@@H](Cc1c[nH]cn1)C(=O)N[C@@H](CO)C(=O)N[C@@H](CCSC)C(=O)N[C@@H](CCC(=O)O)C(=O)N[C@H](C(=O)N[C@@H](CCCNC(=N)N)C(=O)N[C@H](C(=O)N1CCC[C@H]1C(=O)N[C@@H](CC(=O)O)C(=O)N[C@H](C(=O)N[C@@H](CC(N)=O)C(=O)N1CCC[C@H]1C(=O)N[C@@H](C)C(=O)N[C@@H](Cc1c[nH]c2ccccc12)C(=O)N[C@@H](Cc1ccc(O)cc1)C(=O)N[C@@H](C)C(=O)N[C@@H](CO)C(=O)N[C@@H](CCCNC(=N)N)C(=O)NCC(=O)N[C@H](C(=O)N[C@@H](CCCNC(=N)N)C(=O)N1CCC[C@H]1C(=O)N[C@H](C(=O)NCC(=O)N[C@@H](CCCNC(=N)N)C(=O)N[C@@H](Cc1ccccc1)C(N)=O)C(C)C)[C@@H](C)CC)[C@@H](C)CC)[C@@H](C)O)[C@@H](C)CC)[C@@H](C)O [Analog 43]
Ki (rat PrRP receptor): 0.95 ± 0.35 nM | Displacement of rat 125I-PrRP binding (rat PrRP receptor; RC-4B/C cells, rat PrRP receptor): nmol·l^−1 range | % of PrRP31, RC-4B/C rat pituitary cells (rat PrRP receptor; affinity relative to PrRP31): 519% | % of PrRP31, GPR10 human receptor transfected in CHO cells ([1]; affinity relative to PrRP31): 90% | Displacement of human 125I-PrRP binding ([1]; human GPR10 receptor): nmol·l^−1 range | Food intake in rats (Wistar rats): significantly reduced | IPGTT glucose level at end of experiment (420 min) (diabetic db/db mice): significantly lower
